Target: Prostacyclin synthase (Sus scrofa)
Experiment: Inhibition of porcine aorta prostacyclin PGI-2 synthase by bioassay method

IC50 [µM]	SMILES
> 100	c1cn(CCOc2ccc(-c3nnn[nH]3)cc2)cn1 [5-[4-(2-Imidazol-1-yl-ethoxy)-phenyl]-1H-tetrazole]
> 100	CC(=O)Nc1ccc(OCCn2ccnc2)cc1 [N-[4-(2-Imidazol-1-yl-ethoxy)-phenyl]-acetamide]
> 100	O=C(O)Cc1ccccc1OCCn1ccnc1 [[2-(2-Imidazol-1-yl-ethoxy)-phenyl]-acetic acid]
